What was measured:
[1] = target: altC-SQR (altC) of D024 SDHC1 KO mitochondria (Zymoseptoria tritici, UniProt A0A1X7RQW2+F9X9V6+O42772); experiment: Succinate-quinone (SQR) SDHI sensitivity assay on purified mitochondria, 06STD024 SDHC1 KO; type: biochemical; conditions: for IC50: mitochondria of 06STD024 ZtSDHC1 deletion mutant (pure altC-SQR), mean of three ± SD
Procedure: (§1) Succinate-ubiquinone oxidoreductase (SQR) inhibition assays were performed on mitochondrial extracts from a panel of strains that were (i) either carrying a unique C-subunit encoding gene (ZtSDHC1, ZtSDHC1_A84I or Zt-SDHC3), or (ii) carrying two C-subunit encoding genes ZtSDHC1 and ZtSDHC3 (Table 1).
(§2) Biomass production, mitochondrial extraction and purification were performed as described in [14]. Succinate: ubiquinone/DCPIP sensitivity tests were performed as described in [14] with minor modification.

[2] = target: WT-SQR (SDHC), IPO323 mitochondria (Zymoseptoria tritici, UniProt F9X9V6+F9XH52+O42772); experiment: Succinate-quinone (SQR) SDHI sensitivity assay on purified mitochondria, IPO323; type: biochemical
Procedure: as §1
(§3) Biomass production, mitochondrial extraction and purification were performed as described in [14]. Succinate: ubiquinone/DCPIP sensitivity tests were performed as described in [14] with minor modification. The different mitochondrial suspensions were adjusted to similar initial velocity (1 OD595nm hour^-1) and inhibitor concentrations ranged between 0.047nM and 50μM with uniform 4x dilution steps (11 concentrations + DMSO control). Calculated absorbance slopes (OD/min) were used for IC50 calculations using GraphPad Prism 6.07 software non-linear curve fitting against log inhibitor concentrations.

[3] = system: Zymoseptoria tritici isolates; experiment: Growth tests on solid agar at discriminatory fungicide concentrations; type: cell-based; conditions: for Growth phenotype on SDHI-amended plate: AE agar, isofetamid 5 mg.L^-1, 10 DPI (procedure of Fig 6)
Source text: Fig 6 Resistance to SHA-SDHIs in Z. tritici EU populations. […] Sensitivity data are sorted by genotype according to the presence of the ZtSDHC3 gene. ** p value of 0.0029 in Welch’s corrected unpaired t-test. (B) Solid agar growth of a collection of 93 Z. tritici isolates sampled in 2009 (same set as above). Individual strains from this collection are boxed and numbered 1 to 93. Boxes A and B correspond to reference resistant strains 06STD024 and 07STGB009 respectively. Box C corresponds to IPO323 reference sensitive isolate. The yellow framed boxes correspond to strains carrying the ZtSDHC3 gene. Yellow arrow designates strain 09STIR20.1 (number 78) carrying a non-functional alt-SDHC (frameshift, S6 Table).
A large scale spotting assay of 96 isolates (Fig 6) was performed using the V&P 96 floating pin tool VP408FP6 (V&P Scientific), equipped with flat tip FP6 pins of 1.58 mm diameter (resulting in approx. 0.4 μl transfer volume). Source cultures for cell spotting were grown in 100 μl YPD liquid medium in a 96 well flat bottom plate (Corning, 3370) at 18°C for 11 days (average cell density of 3.5·10^6/ml), then diluted 1:2x in fresh YPD medium and incubated for another 1.5 h before transfer with the pin tool (approx. 700 cells per spot) onto AE agar with or without fungicide. Plates were incubated at 20°C in the dark for up to 18 days. Smaller scale spotting assays (Figs 4 and 8) were performed using 5 days V8-agar plates inoculums adjusted to 2.10^6 spores.mL^-1 in water and diluted in steps of 3. 2μL of spore suspension was spotted on the plates, and the plates were incubated shielded from light at 21°C for 6 days.

[4] = target: SQR (SDHC) of D024 SDHC3 KO mitochondria (Zymoseptoria tritici, UniProt F9X9V6+F9XH52+O42772); experiment: Succinate-quinone (SQR) SDHI sensitivity assay on purified mitochondria, 06STD024 SDHC3 KO; type: biochemical; conditions: for RF (resistance factor), D024 SDHC3 KO (SDHC): IC50 ratio compared to IPO323 values; for IC50: mitochondria of 06STD024 ZtSDHC3 deletion mutant, mean of three ± SD
Procedure: as §1, §3

[5] = target: SQR (SDHC / altC) of IPO323 pTet::SDHC3 transformant, repressed (Zymoseptoria tritici, UniProt A0A1X7RQW2+F9X9V6+F9XH52+O42772); experiment: Succinate-quinone (SQR) SDHI sensitivity assay on purified mitochondria, IPO323 pTet::SDHC3 repressed; type: biochemical
Procedure: as §1, §2

[6] = system: SQR (SDHC / altC) of IPO323 pTet::SDHC3 transformant, induced; experiment: Succinate-quinone (SQR) SDHI sensitivity assay on purified mitochondria, IPO323 pTet::SDHC3 induced; type: biochemical, Zymoseptoria tritici; conditions: IPO323 pTet::SDHC3 transformant grown in the absence of doxycycline; mean of three ± SD
Procedure: as §1, §2

[7] = target: SQR of 06STD024 (SDHC / altC) mitochondria (Zymoseptoria tritici, UniProt A0A1X7RQW2+F9X9V6+F9XH52+O42772); experiment: Succinate-quinone (SQR) SDHI sensitivity assay on purified mitochondria, 06STD024; type: biochemical; conditions: for IC50: mitochondria of field isolate 06STD024, mean of three ± SD
Procedure: as §1, §2

[8] = IC50 ratio compared to IPO323 values

SQR (SDHC) of D024 SDHC3 KO mitochondria, sequence (F9XH52 44-187): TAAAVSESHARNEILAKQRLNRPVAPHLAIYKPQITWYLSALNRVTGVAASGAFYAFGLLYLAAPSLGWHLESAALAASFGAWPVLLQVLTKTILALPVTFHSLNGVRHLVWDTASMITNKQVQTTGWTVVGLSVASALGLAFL
SQR (SDHC) of D024 SDHC3 KO mitochondria, sequence (O42772 19-297): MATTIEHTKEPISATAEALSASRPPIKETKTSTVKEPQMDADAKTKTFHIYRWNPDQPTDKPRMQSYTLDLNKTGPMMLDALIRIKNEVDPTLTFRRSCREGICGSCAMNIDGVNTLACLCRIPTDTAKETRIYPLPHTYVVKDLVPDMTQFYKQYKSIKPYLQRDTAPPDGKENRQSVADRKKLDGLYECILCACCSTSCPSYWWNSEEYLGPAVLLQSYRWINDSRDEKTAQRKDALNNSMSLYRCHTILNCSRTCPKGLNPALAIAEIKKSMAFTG
SQR (SDHC) of D024 SDHC3 KO mitochondria, sequence (F9X9V6 1-193): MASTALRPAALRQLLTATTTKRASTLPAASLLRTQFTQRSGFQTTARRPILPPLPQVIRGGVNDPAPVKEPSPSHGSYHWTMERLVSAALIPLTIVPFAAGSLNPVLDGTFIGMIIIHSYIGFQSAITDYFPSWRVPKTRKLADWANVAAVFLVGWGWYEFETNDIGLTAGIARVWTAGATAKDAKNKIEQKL
SQR (SDHC) of D024 SDHC3 KO mitochondria, sequence (F9WWR1 29-643 partner): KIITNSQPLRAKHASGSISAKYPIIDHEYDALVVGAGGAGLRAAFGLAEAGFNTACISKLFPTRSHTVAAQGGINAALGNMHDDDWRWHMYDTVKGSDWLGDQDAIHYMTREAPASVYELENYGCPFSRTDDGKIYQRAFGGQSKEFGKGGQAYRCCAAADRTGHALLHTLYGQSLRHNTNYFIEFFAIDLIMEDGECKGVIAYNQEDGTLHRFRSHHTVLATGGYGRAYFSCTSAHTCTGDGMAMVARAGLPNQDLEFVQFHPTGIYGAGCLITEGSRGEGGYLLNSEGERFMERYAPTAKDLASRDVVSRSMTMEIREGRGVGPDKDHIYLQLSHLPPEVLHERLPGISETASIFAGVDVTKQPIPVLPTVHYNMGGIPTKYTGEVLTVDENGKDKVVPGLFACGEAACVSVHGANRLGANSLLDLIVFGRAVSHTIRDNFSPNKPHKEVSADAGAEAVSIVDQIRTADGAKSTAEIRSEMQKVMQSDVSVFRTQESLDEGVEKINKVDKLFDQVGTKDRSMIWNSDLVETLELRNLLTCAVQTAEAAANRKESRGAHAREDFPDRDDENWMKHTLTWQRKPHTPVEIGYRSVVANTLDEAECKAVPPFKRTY
WT-SQR (SDHC), IPO323 mitochondria, sequence (F9WWR1 entry or part of it): as the sequence (F9WWR1 29-643 partner) above
WT-SQR (SDHC), IPO323 mitochondria, sequence (F9X9V6 entry or part of it): as the sequence (F9X9V6 1-193) above
WT-SQR (SDHC), IPO323 mitochondria, sequence (O42772 19-297): as the sequence (O42772 19-297) above
WT-SQR (SDHC), IPO323 mitochondria, sequence (F9XH52 entry or part of it): as the sequence (F9XH52 44-187) above
SQR of 06STD024 (SDHC / altC) mitochondria, sequence (A0A1X7RQW2 36-181): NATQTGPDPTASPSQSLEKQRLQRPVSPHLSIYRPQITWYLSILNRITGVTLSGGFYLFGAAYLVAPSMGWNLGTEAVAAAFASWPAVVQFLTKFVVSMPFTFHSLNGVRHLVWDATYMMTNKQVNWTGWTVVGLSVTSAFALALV
SQR of 06STD024 (SDHC / altC) mitochondria, sequence (O42772 19-297): as the sequence (O42772 19-297) above
SQR of 06STD024 (SDHC / altC) mitochondria, sequence (F9X9V6 1-193): as the sequence (F9X9V6 1-193) above
SQR of 06STD024 (SDHC / altC) mitochondria, sequence (F9XH52 44-187): as the sequence (F9XH52 44-187) above
SQR of 06STD024 (SDHC / altC) mitochondria, sequence (F9WWR1 29-643 partner): as the sequence (F9WWR1 29-643 partner) above

For Cc1cc(OC(C)C)ccc1C(=O)C(C)(C)NC(=O)c1sccc1C [Isofetamid], the IC50 [1] was > 50000 nM, the IC50 [2] was 0.9 ± 0.1 nM and the “Growth on isofetamid-supplemented agar plate” value ([3]; isolate 09STIR20.1 (ZtSDHC3 frameshift), 10 DPI, 5 mg.L^-1) was “did not grow”. For the same compound, the “Growth phenotype on SDHI-amended plate” value ([3]; strain 06STD024) was “Very strong”, the “Growth phenotype on SDHI-amended plate” value ([3]; strain 07STGB009) was “Very strong” and the “Growth phenotype on SDHI-amended plate” value ([3]; strain 09STD041) was “Strong”. The “Growth phenotype on SDHI-amended plate” value ([3]; strain 09STD053) was “Strong”, the “Growth phenotype on SDHI-amended plate” value ([3]; strain 09STF011) was “Strong” and the “Growth phenotype on SDHI-amended plate” value ([3]; strain 09STF037) was “Weak”. For the same compound, the “Growth phenotype on SDHI-amended plate” value ([3]; strain 09STF112) was “Strong”, the “Growth phenotype on SDHI-amended plate” value ([3]; strain 09STIR20.3) was “Weak” and the “Growth phenotype on SDHI-amended plate” value ([3]; strain IPO323) was “No”. The “Growth phenotype on SDHI-amended plate” value ([3]; strain IPO94269) was “No”.
With CC(C)CC(C)c1sccc1NC(=O)c1cn(C)nc1C(F)(F)F (stereo not shown) [Penthiopyrad] the “RF (resistance factor), D024 SDHC1 KO (altC)” value [1, 8] was 1.2, the IC50 [1] was 1.6 ± 0.7 nM and the “RF (resistance factor), D024 SDHC3 KO (SDHC)” value [4] was 1.1. The IC50 [4] was 1.5 ± 0.3 nM, the IC50 [2] was 1.4 ± 0.3 nM and the “RF (resistance factor), pTet Repressed (SDHC / altC)” value [5, 8] was 1.4. The IC50 ([5]; IPO323 pTet::SDHC3 transformant grown in presence of 30 mg.L^-1 doxycycline, mean of three ± SD) was 1.9 ± 0.4 nM, the IC50 [6] was 1.8 ± 0.1 nM and the “RF (resistance factor), 06STD024 (SDHC / altC)” value [7, 8] was 1.4. It also gave an IC50 [7] of 2 ± 0.8 nM.
In the case of CON(C(=O)c1cn(C)nc1C(F)F)[C@@H](C)Cc1ccc(Cl)cc1Cl [Compound 3], the IC50 [1] is reported as 22.7 ± 0.8 nM, the “RF (resistance factor), D024 SDHC3 KO (SDHC)” value [4] is reported as 1.2 and the IC50 [4] is reported as 0.8 ± 0.13 nM. The IC50 [2] was 0.7 ± 0.2 nM and the IC50 [7] was 26.4 ± 1.2 nM.
